According to patent US20230272029A1, “CO-AGONISTS AT GLP-1 AND GIP RECEPTORS SUITABLE FOR ORAL DELIVERY” (Novo Nordisk A/S, priority 2020, published 2023):
Starred links: 1 amine or outer side, 2 acyl side, 3 side chain; linkers in the order of their positions; H or OH if unused. Non-standard residues stand in square brackets, D forms with d. Residues, ends and D or L forms follow the SMILES beside them. Groups on a side chain read outwards from the residue. *: point of attachment. C18 diacid = O=C(O)CCCCCCCCCCCCCCCCC(=O)*; γGlu = O=C(O)[C@H](CCC(=O)[*:2])N[*:1]; εLys = N[C@@H](CCCCN[*:1])C(=O)[*:2]; Aib = CC(C)(N)C(=O)O

Assay: Pharmacokinetic study in dogs after oral dosing of tablets with SNAC
Format: in vivo, Beagle dogs
Conditions: dog, in vivo, po
How it was run: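 Male beagle dogs were fasted and given a single oral tablet containing 3-4 mg test substance with 100-300 mg SNAC, in groups of 6-8. Plasma from serial EDTA blood samples was analysed by LC-MS, and t1/2, Cmax/D, tmax and AUC/D were obtained by non-compartmental analysis.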

- Cmax/Dose: 0.22 kg/L
Structure (SMILES): CC[C@H](C)[C@H](NC(=O)[C@H](Cc1ccccc1)NC(=O)[C@H](CCC(=O)O)NC(=O)[C@H](CCCNC(=N)N)NC(=O)[C@H](C)NC(=O)[C@H](C)NC(=O)[C@H](CCC(N)=O)NC(=O)[C@H](CCC(=O)O)NC(=O)[C@H](CCC(=O)O)NC(=O)[C@H](CC(C)C)NC(=O)[C@H](CC(C)C)NC(=O)[C@@H](NC(=O)[C@H](CO)NC(=O)[C@H](Cc1ccc(O)cc1)NC(=O)[C@H](CC(=O)O)NC(=O)[C@H](CO)NC(=O)[C@@H](NC(=O)[C@H](Cc1ccccc1)NC(=O)[C@@H](NC(=O)CNC(=O)[C@H](CCC(=O)O)NC(=O)C(C)(C)NC(=O)[C@@H](N)Cc1ccc(O)cc1)[C@@H](C)O)[C@@H](C)O)[C@@H](C)CC)C(=O)N[C@@H](CCC(=O)O)C(=O)N[C@@H](Cc1c[nH]c2ccccc12)C(=O)N[C@@H](CC(C)C)C(=O)N[C@@H](CC(C)C)C(=O)N[C@@H](C)C(=O)NCC(=O)NCC(=O)N1CCC[C@H]1C(=O)N[C@@H](CO)C(=O)N[C@@H](CCCCNC(=O)[C@@H](N)CCCCNC(=O)[C@@H](N)CCCCNC(=O)CC[C@H](NC(=O)CCCCCCCCCCCCCCCCC(=O)O)C(=O)O)C(=O)NCC(=O)N[C@@H](C)C(=O)N1CCC[C@H]1C(=O)N1CCC[C@H]1C(=O)N1CCC[C@H]1C(=O)N[C@@H](CO)C(=O)O [Compound No. 43] (H-Y[Aib]EGTFTSDYSILLEEQAAREFIEWLLAGGPSK([εLys-εLys-γGlu-C18 diacid])GAPPPS-OH)
